Values quoted from earlier work as cited in patent US8754096B2, “Piperidinone carboxamide azaindane CGRP receptor antagonists” (Merck Sharp & Dohme Corp., priority 2010, dated 2014).

Test system: migraine
Conditions: phase III clinical trials, orally bioavailable

Question: With `O=C(N[C@@H]1CC[C@@H](c2cccc(F)c2F)CN(CC(F)(F)F)C1=O)N1CCC(n2c(=O)[nH]c3ncccc32)CC1` [telcagepant] as the compound, how does the antimigraine effectiveness read?
Answer: shown antimigraine effectiveness
